Results published in patent publication US9233954B2, “Organic amine salts of Azilsartan, preparation method and use thereof” (Jiangsu Hansoh Pharmaceutical Co., Ltd., priority 2011, dated 2016).
Read-outs that look alike come from different tables or passages of the source.

Tests used:
[1] = test system: blood pressure of SHR rats; assay: Antihypertensive effect test for spontaneously hypertensive (SHR) rats; assay type: in vivo; settings: 10 mg/kg
Description: Antihypertensive Effect Test For Spontaneously Hypertensive (SHR) Rats
38 of 25 week old SHR male rats were randomly divided into 4 groups according to the initial blood pressure, with 6 for the control group (solvent) and 8 for other groups. 10 mg/kg of example 2 compound (Choline Azilsartan), example 4 compound (Azilsartan ethanolamine salts) and control (Azilsartan medoxomil potassium salt) were continuously administered, respectively. The solvent control group was administered solvent. The administration volume was 5 ml/kg and the period was 2 weeks.

[2] = test system: hypertension rats induced by Angiotensin II; assay: Effect on the hypertension rats induced by angiotensin II (DSI telemetry); assay type: in vivo, Sprague-Dawley rats; settings: for The average MBP over 23 hours before administration: baseline before single intragastric dose; for The average MBP over 23 hours before administration / Average blood pressure 1 hr after administration / Average blood pressure 2 hr after administration / Average blood pressure 3 hr before administration / Average blood pressure 7 hr after administration / Average blood pressure 13 hr after administration / Average blood pressure 13 hr before administration / Average blood pressure 18 hr after administration / Average blood pressure 23 hr after administration / Average blood pressure 23 hr before administration / The average MBP over 23 hours after administration: Mean±S.E., N=8; for Average ratio of reduction of the average blood pressure: average value after administration over 23 hours
Description: The Effect on the Hypertension Rats Induced by Angiotensin II
The dosage of angiotensin II was determined according to literature (Harrison-Bernard L M, Zhuo J, Kobori H, Ohishi M, Navar L G. Intrarenal A T (1) receptor and ACE binding in ANG II-induced hypertensive rats. Am. J. Physiol. Renal Physiol. 2002 January; 282(1):F19-25; Diz D I, Baer P G, Nasjletti A. Angiotensin II-induced hypertension in the rat. Effects on the plasma concentration, renal excretion, and tissue release of prostaglandins. J. Clin. Invest. 1983 August; 72(2):466-77.). Angiotensin II was precisely weighed and diluted with sterile saline up to a concentration of 14.4 mg/mL, then mixed slightly until clear and stored at −20° C. in the dark.
HS-10149 suspension: the compounds were precisely weighed and diluted with 2% of Ceolus suspension in a gradient of 0.20 mg/ml, 0.06 mg/ml, 0.02 mg/ml, then the suspension was stirred until dissolution and stored at 4° C. in the dark. The sample was warmed to room temperature in advance before administration and mixed to uniform.
The animals with required weight (female: 230-250 g, male: 200-220 g) were selected after adaptation for one week. The male rats were subjected to combined anesthesia of ketamine (44 mg/kg, im.) and 2% pentobarbital sodium solution (30 mg/kg, ip), and the female rates were narcotized with 2% pentobarbital sodium solution (40 mg/kg, ip). The implants were implanted on day 0 and the blood pressure was continuously monitored for 24 hours from the 7th day after implantation of a micro osmotic pump. The animals with mean systolic blood pressure (MSBP) up to 140 mmHg over 24 hours were considered as standard screening animals. The qualified animals were used in the test and the unqualified animals were excluded.
The qualified animals were divided into groups according to their MSBP over 24 hours, 8 animals for each group with half female and half male. 8 animals for each group met the requirement of statistical tests and the requirement of pharmacodynamics guiding principles.
After grouping, the solvent control, low, middle and high dosage animal groups were intragastrically administered with 2% Ceolus, 0.1 mg/kg, 0.3 mg/kg and 1.0 mg/kg of HS-10149, respectively. The administration time was 10:00 and 10:30 a.m. and the administration volume was 5 mL/kg.
(4) Experimental Process Healthy animals were implanted with implants at day 0 and a micro osmotic pump was implanted subcutaneously at day 8. The blood pressure was monitored for 24 hours from the 15th day and the animals with qualified blood pressure were selected to test. Positive drug or test sample was administered once at 10:00 a.m. on the 16th day and the blood pressure was monitored after administration for 24 hours. At the end of the test, the animals were sacrificed by excessive carbon dioxide. 5. Handling and Analysis of Data
The data were recorded every 5 s automatically by the DSI remote sensing pressure measuring device. The mean value calculated within an hour as unit by the software was considered as initial data.

Beagle dog = assay type: in vivo; settings: for Clinical observations: intragastric
Text: Acute Toxicity Test Research for Beagle Dog
Object: Approximate lethal dose method was introduced in the test to observe the acute toxicity response of the animals by intragastric administration of example 2 or Azilsartan medoxomil potassium salt to Beagle dogs to study the toxicity situation of example 2 after administration and compare the toxicity of example 2 and Azilsartan medoxomil potassium salt, which can provide reference confirmation for the evaluation of toxicity of example 2.
Method (approximate lethal dose method): 6 Beagle dogs were used, 3 for each of example 2 group and Azilsartan medoxomil potassium salt group. The administration dosage was 0.09, 0.13, 0.19, 0.28, 0.42, 0.63, 0.95, 1.42, 2.13, 3.20 g·kg^−1 respectively, wherein 3.20 g·kg^−1 was the maximum administration dosage (corresponding to 1081 times the given dosage for the clinical patient). The blood was collected before administration and on days 2, 7, and 14 after administration to test the corresponding biochemical indicators. Electrocardiogram, body weight, and body temperature were determined before administration and on days 7 and 14 after administration.

[3] = rat, in vivo, po
Description: Drug Metabolism Test of Sprague Dawley (SD) Rats after Administration
Twelve SD rats that weighed 200-250 g were randomly divided into two groups with each group having 6 rats, half male and half female. […] 0.5 ml blood were collected from orbit before administration and at 0.5, 1.0, 2.0, 3.0, 4.0, 5.0, 7.0, 10, 24 and 48 h after administration. Plasma concentration of Azilsartan (TAK-536), M1 (product of decarboxylation of Azilsartan) and M2 (product of O-dealkylation) was measured.

[4] = Beagle dog, intragastric administration
[5] = all of the animals in the group, 1.42-3.20 g·kg^−1

CCOc1nc2cccc(C(=O)O)c2n1Cc1ccc(-c2ccccc2-c2noc(=O)[nH]2)cc1.CCOc1nc2cccc(C(=O)[O-])c2n1Cc1ccc(-c2ccccc2-c2noc(=O)[nH]2)cc1.C[N+](C)(C)CCO [Example 2]
Antihypertensive effect compared with control (Azilsartan medoxomil potassium salt) ([1]; SHR rats, 2 weeks): superior to the antihypertensive effect of control | Antihypertensive effect, ranking under the same dosage ([1]; SHR rats, 2 weeks): optimal | Effect on blood pressure of SHR rats compared with solvent control ([1]; continuously administered for one or two weeks, FIG. 4): reduce the blood pressure of SHR rats significantly | The average MBP over 23 hours before administration ([2]; 0.1 mg/kg group): 146 ± 5 mmHg | Average blood pressure 1 hr after administration ([2]; 0.1 mg/kg group): 128 ± 8 | Average blood pressure 2 hr after administration ([2]; 0.1 mg/kg group): 102 ± 9 | Average blood pressure 3 hr before administration ([2]; 0.1 mg/kg group): 128 ± 9 | Average blood pressure 7 hr after administration ([2]; 0.1 mg/kg group): 91 ± 5 | Average blood pressure 13 hr after administration ([2]; 0.1 mg/kg group): 110 ± 3 | Average blood pressure 13 hr before administration ([2]; 0.1 mg/kg group): 144 ± 7 | Average blood pressure 18 hr after administration ([2]; 0.1 mg/kg group): 114 ± 3 | Average blood pressure 23 hr after administration ([2]; 0.1 mg/kg group): 109 ± 5 | Average blood pressure 23 hr before administration ([2]; 0.1 mg/kg group): 142 ± 8 | The average MBP over 23 hours after administration ([2]; 0.1 mg/kg single intragastric dose): 110 ± 3 mmHg | Antihypertension effect in the hypertension rat models induced by angiotensin II ([2]; 0.1 mg/kg to 1.0 mg/kg): significant antihypertension effect | Average ratio of reduction of the average blood pressure ([2]; 0.1 mg/kg): 24.7% | The average MBP over 23 hours before administration ([2]; 0.3 mg/kg group): 145 ± 5 mmHg | Average blood pressure 1 hr after administration ([2]; 0.3 mg/kg group): 119 ± 11 | Average blood pressure 2 hr after administration ([2]; 0.3 mg/kg group): 83 ± 6 | Average blood pressure 3 hr before administration ([2]; 0.3 mg/kg group): 124 ± 10 | Average blood pressure 7 hr after administration ([2]; 0.3 mg/kg group): 77 ± 4 | Average blood pressure 13 hr after administration ([2]; 0.3 mg/kg group): 91 ± 8 | Average blood pressure 13 hr before administration ([2]; 0.3 mg/kg group): 150 ± 6 | Average blood pressure 18 hr after administration ([2]; 0.3 mg/kg group): 108 ± 10 | Average blood pressure 23 hr after administration ([2]; 0.3 mg/kg group): 93 ± 3 | Average blood pressure 23 hr before administration ([2]; 0.3 mg/kg group): 147 ± 8 | The average MBP over 23 hours after administration ([2]; 0.3 mg/kg single intragastric dose): 88 ± 7 mmHg | Average ratio of reduction of the average blood pressure ([2]; 0.3 mg/kg): 39.3% | The average MBP over 23 hours before administration ([2]; 1.0 mg/kg group): 147 ± 5 mmHg | Average blood pressure 1 hr after administration ([2]; 1.0 mg/kg group): 118 ± 6 | Average blood pressure 2 hr after administration ([2]; 1.0 mg/kg group): 85 ± 5 | Average blood pressure 3 hr before administration ([2]; 1.0 mg/kg group): 129 ± 9 | Average blood pressure 7 hr after administration ([2]; 1.0 mg/kg group): 74 ± 4 | Average blood pressure 13 hr after administration ([2]; 1.0 mg/kg group): 76 ± 6 | Average blood pressure 13 hr before administration ([2]; 1.0 mg/kg group): 149 ± 7 | Average blood pressure 18 hr after administration ([2]; 1.0 mg/kg group): 80 ± 5 | Average blood pressure 23 hr after administration ([2]; 1.0 mg/kg group): 81 ± 5 | Average blood pressure 23 hr before administration ([2]; 1.0 mg/kg group): 146 ± 9 | The average MBP over 23 hours after administration ([2]; 1.0 mg/kg single intragastric dose): 81 ± 5 mmHg | Average ratio of reduction of the average blood pressure ([2]; 1.0 mg/kg): 44.9% | Minimum effective dose ([2]; single intragastric administration): 0.1 mg/kg | Duration of the effect after single administration ([2]; single intragastric administration, 0.1-1.0 mg/kg): about 23 hours | Dissection findings (Beagle dog; 1.42 g·kg^−1 dosage group): the stomach was filled and contained amounts of particle food; the cardiac mucosa was red and showed sporadic red dot; other viscera did not show anomalies | Clinical observations (Beagle dog; 1.42 g·kg^−1 dosage group, Beagle dog): liquid stools and less moving, moving reduction on day 2 after administration, the moving recovered to normal on day 3 and no abnormality was observed after day 3 | Clinical observations (Beagle dog; 2.13 g·kg^−1 dosage group, Beagle dog): on the day of administration no abnormality was observed and the animals showed vomit, moving reduction on day 2 after administration, loose stools and moving recovered on day 3, and the excreta recovered to normal on day 4 and no abnormality observed after day 4 | Dissection findings (Beagle dog; 2.13 g·kg^−1 dosage group, day 15): the stomach was filled and contained amounts of particle food; the cardiac mucosa was red and showed sporadic red dot; other viscera did not show anomalies | Blood biochemical indicators (Beagle dog; 3.20 g·kg^−1 dosage): ALT of dogs with 3.20 g·kg^−1 dosage was increased on day 2 and recovered to normal on day 7 | Fib (Beagle dog; 3.20 g·kg^−1 dosage): increased significantly on day 2 after administration | Histopathology (HE, light microscope) (Beagle dog; 3.20 g·kg^−1 dosage group): did not show obvious anomalies | Clinical observations (Beagle dog; 3.20 g·kg^−1 dosage group, Beagle dog): loose stools, liquid stools, vomit until the end of the observation and showed liquid stools, moving reduction on day 2 after administration, showed loose stools on day 3 and the moving recovered, the excreta recovered to normal on day 4 and no abnormality observed after that | Systolic blood pressure and diastolic blood pressure (Beagle dog; 5 animals of the two groups together): reduced more or less on day 2 after administration | Acute toxicity, comparison (Beagle dog; [4]): lower than that of Azilsartan medoxomil potassium salt | Approximate lethal dose (Beagle dog; [4]): more than 3.20 g·kg^−1 | Body temperature (Beagle dog; [5]): no abnormality on day 7 after administration | Body weight (Beagle dog; [5]): decreased on day 7 after administration compared with pre-administration | Electrocardiogram and haematological indicators (Beagle dog; [5]): not abnormal on day 7 after administration | PT values (Beagle dog; all the animals of the group, after vs. pre-administration): reduced significantly after administration compared to pre-administration | Blood biochemical indicators (Beagle dog; all the dogs of the group (1.42, 2.13, 3.20 g·kg^−1)): CRE, UREA and UA of all the dogs administered Example 2 compound were increased significantly on day 2 after administration, the CRE and UA increased significantly on day 7 after administration, and they recovered to normal on day 14 | Increase of AUC of Azilsartan acid in the plasma [3]: 70% | Increase of Cmax of Azilsartan acid in the plasma [3]: 98%
